Assay results: US11054425B2, “System and method for identification and characterization of transglutaminase species” (Roche Sequencing Solutions, Inc., priority 2014, dated 2021)
No end group written: not given here. *: point of attachment. Cbz = O=C(OCc1ccccc1)*

Columns and labels:
Format in all cases: biochemical, Kutzneria albida
[1] = tested on: KalbTG; test: GLDH-coupled assay in solution (NADH oxidation); conditions: NADH oxidation at 340 nm, 37° C.
Protocol: KalbTG activity was obtained by measuring incorporation of a biotinylated amine-donor on the peptide array and rates of NADH oxidation at 340 nm and 37° C. in the presence of amine-donor substrate (500 μM) in the GLDH-coupled assay using 100 μM each of nine of the best-performing array-selected glutamine-containing substrates and of two S. mobaraensis MTG glutamine-containing substrates. […] Testing of the top sequences in Table 1 confirmed YRYRQ (SEQ ID NO: 1) and RYRQR (SEQ ID NO 14) as the top performing 5-mer substrates, with turnover rates of 3.52±0.08 pmol NADH s^−1 and 3.60±0.12 pmol NADH s^−1, respectively.
With reference to Table 2, KalbTG activity was obtained by measuring incorporation of a biotinylated glutamine-donor and rates of NADH oxidation at 340 nm and 37° C. in the presence of glutamine-donor substrate (200 μM) in the GLDH-coupled assay using 100 μM each of i) six of the top-performing array-selected lysine substrates, ii) cadaverine, and iii) preferred MTG lysine substrate ARSKL (SEQ ID NO:30). […] This is a small but significant increase over cadaverine (3.51±0.12 pmol s^−1) or ARSKL (SEQ ID NO:30) (3.87±0.31 pmol s^−1), a peptide previously established as a preferred MTG lysine donor motif on the peptide array. Additional details on the S. mobaraensis MTG substrate peptide ARSKL (SEQ ID NO:30) can be found in U.S. Provisional Patent Application Ser. No. 62/094,495 to Albert et al. filed on Dec. 19, 2014.
For the GLDH coupled assay, to determine whether the KalbTG peptides selected in the array assay were also preferred substrates in a solution reaction and to quantify cross-reactivity of KalbTG and S. mobaraensis MTG with various substrates, a continuous glutamate dehydrogenase (GLDH)-coupled assay for S. mobaraensis MTG activity (see Oteng-Pabi, et al., 2013. Analytical biochemistry 441(2): 169-173) was applied.
For glutamine substrate evaluation, the assay was performed in a transparent 96-well microtiter plate in the presence of 500 μM α-ketoglutarate, 500 μM or 1 mM cadaverine as Amine donor substituting for a lysine-containing peptide, 2 U ml^−1 of glutamate dehydrogenase (GLDH), 500 μM NADH and glutamine-containing substrate peptide (Z-[[…] (SEQ ID NO:77)], Z-[[…] (SEQ ID NO:78)], Z-[[…] (SEQ ID NO:75)], Z-[[…] (SEQ ID NO:79)], Z-[[…] (SEQ ID NO:80)], Z-[[…] (SEQ ID NO:81)], Z-[[…] (SEQ ID NO:82)], Z-[[…] (SEQ ID NO:83)], Z-[[…] (SEQ ID NO:84)], Z-[[…] (SEQ ID NO:85)], Z-[[…] (SEQ ID NO:86)], Z-[[…] (SEQ ID NO:76)] or Z-[[…] (SEQ ID NO:87)]) concentrations ranging between 0 and 1 mM in 200 mM MOPS, 1 mM EDTA pH 7.2 (total volume per well 200 μl).
For amine substrate evaluation, assay conditions were the same as for glutamine substrate evaluation with the exception that 100 μM each of amine substrate (Z-[[…] (SEQ ID NO:88)], Z-[[…] (SEQ ID NO:89)], Z-[[…] (SEQ ID NO:90)], Z-[[…] (SEQ ID NO:91)], Z-[[…] (SEQ ID NO:92)], Z-[[…] (SEQ ID NO:93)], Z-[[…] (SEQ ID NO:94)], Z-[[…] (SEQ ID NO:95)] or cadaverine) and 200 μM glutamine donor (Z-[[…] (SEQ ID NO:75)] or Z-[[…] (SEQ ID NO:76)]) were used.
Reactions were started by the addition of 5 μg ml^−1 of S. mobaraensis MTG or KalbTG and the oxidation of NADH was continuously recorded at 340 nm for 60 minutes using a Biotek Synergy H4 microplate reader, temperature controlled at 37° C., with short shaking intervals before each measurement. After a short lag phase where the GLDH was saturated by transglutaminase-mediated release of ammonia, linear rates of absorbance versus time corresponding to transglutaminase turnover were observed and subjected to Michaelis-Menten kinetic analysis. […]

[2] = tested on: KalbTG; test: 5-mer peptide array, lysine-substrate screening with biotinylated glutamine donor; conditions: incorporation of biotinylated glutamine-donor on 5-mer peptide array
Excerpt: A second round of maturation on the peptide array yielded […] (SEQ ID NO:24) as the top performing 9-mer substrate, which was then resynthesized as biotinylated peptide to act as acyl donor for the discovery of optimized lysine recognition motifs back on the 5-mer peptide array (FIG. 4B). Again, six of the best lysine-containing peptides were resynthesized and tested in the KalbTG in-solution activity assay using a peptide containing the optimized glutamine recognition sequence YRYRQ (SEQ ID NO:1) as an acyl donor (Table 2). It will be appreciated that calculation of an array signal for cadaverine was not applicable due to omission of cadaverine from the array.
(§1) For construction of the peptide array, a library of 1,360,732 unique 5-mer peptides was designed by using all combinations of 18 natural amino acids excluding cysteine and methionine, as well as any dimer or a longer repeat of the same amino acid, and any peptide containing a dipeptide selected from HR, RH, HK, KH, RK, KR, HP, and PQ sequences. The library was synthesized in duplicate on the same array by using maskless light-directed peptide array synthesis. Each 5-mer peptide was flanked on both the N-terminus and C-terminus by 3 amino acid-long linkers synthesized by using mixture of glycine and serine having a 3:1 ratio.
In order to test KalbTG specificity for lysine substrates, chemically synthesized Z-[[…] (SEQ ID NO:31)]-PEG-Biotin peptide—which includes the sequence […] (SEQ ID NO:31)—was used as a glutamine-containing substrate to biotinylate lysine-containing peptides. Array biotinylation was done as described above with 0.1 ng μl^−1 KalbTG, 0.8 μM peptide at 37° C. for 15 minutes. Note that the a “Z—” in front of a peptide or other like construct is used herein to represent a carboxybenzyl group unless stated otherwise.
Target sequence in this assay (as listed by the source): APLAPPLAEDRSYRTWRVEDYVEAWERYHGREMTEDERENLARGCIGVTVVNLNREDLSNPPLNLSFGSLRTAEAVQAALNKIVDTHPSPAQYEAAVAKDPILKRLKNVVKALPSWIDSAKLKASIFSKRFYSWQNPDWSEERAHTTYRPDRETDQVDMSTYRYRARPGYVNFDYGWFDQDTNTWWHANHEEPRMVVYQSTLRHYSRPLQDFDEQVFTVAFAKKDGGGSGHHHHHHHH

[3] = tested on: KalbTG; test: 5-mer peptide array, glutamine-substrate screening with biotinylated amine donor; conditions: incorporation of biotinylated amine-donor on 5-mer peptide array
Protocol: To identify potential acyl-donor and amine-donor substrates of the K. albida transglutaminase, high-throughput screening on 5-mer peptide arrays was performed (FIGS. 4A and 4B). An activity of at least 1.65 U/mg for both the SlyD-fused and the mature KalbTG enzymes was confirmed by commercial assay (Zedira MTG-ANiTA-KIT; compared to 4.3 U mg^−1 by the MTG supplied with the kit and a 0.07 U/mg blank value with BSA). The assay used β-casein as a cross-linking substrate and detected deamidation by a glutamate dehydrogenase dependent oxidation of NADPH. Specific recognition motifs were identified by assaying KalbTG with peptide arrays prepared by maskless array synthesis (U.S. Pat. Pub. No 2015/0185216 to Albert et al. filed on 19 Dec. 2014). The efficiency of the transamidation reaction between 1.4 million unique 5-mer peptides and a biotinylated amine donor was quantified on two arrays in parallel and the sequences of the peptides with the highest turnovers were determined (FIG. 4A). The nine best peptides were resynthesized and tested for KalbTG activity in a standalone GLDH-coupled assay. Note that the array signal for the sequence MLAQG (SEQ ID NO:13) is marked not applicable (n. a.) as this sequence was not included on the array. Similarly, measurement of a background signal was only applicable to experiments performed on the array.
as §1
Target sequence in this assay (as listed by the source): as above
To test KalbTG specificity for glutamine-containing substrate, N-(biotinyl)cadaverine was used as a substitute for a lysine substrate to biotinylate glutamine-peptides on a peptide array. KalbTG labeling reaction was performed in 1200 μL 100 mM Tris-HCl pH 8, 1 mM DTT, 50 μM N-(biotinyl)cadaverine, 0.2 ng μl^−1 KalbTG in SecureSeal™ chamber (Grace Bio-Labs) at 37° C. for 45 minutes. After incubation the chamber was removed and the array was washed in 20 mM Tris-HCl, pH7.8, 0.2 M NaCl, 1% SDS for 1 minute followed by a 1 minute wash in 20 mM Tris-HCl. Biotin linked to the array was stained with 0.3 μg ml^−1 Cy5-streptavidin in 10 mM Tris-HCl, pH7.4, 1% alkali-soluble casein, 0.05% TWEEN-20 non-ionic detergent at room temperature for 1 hour. Cy5 fluorescence intensity was measured with a fluorescence scanner at a resolution of 2 μm and a wavelength of 635 nm.

[4] = 100 μM amine substrate, 200 μM glutamine-donor substrate
[5] = 100 μM glutamine-containing substrate, 500 μM amine-donor substrate

Row | Compound | Reaction rate in solution [1, 4] | Reaction rate in solution ([1]; 100 μM amine substrate, 200 μM glutamine-donor substrate, listed as cadaverine) | Array signal (log2) [2] | Reaction rate in solution [1, 5] | Array signal (log2) [3]
1 | NCCCCCN [Cadaverine, reference compound] | 3.51 ± 0.12 pmol/s | 3.51 ± 0.12 pmol/s |  |  | 
2 | ARSKL (Cbz-ARSKL) [preferred MTG lysine substrate, reference compound] | 3.87 ± 0.31 pmol/s |  | 12.0 log2 |  | 
3 | AYRTK (Cbz-AYRTK) [KalbTG lysine 5-mer] | 3.65 ± 0.17 pmol/s |  | 12.57 log2 |  | 
4 | FRQRG (Cbz-FRQRG) [KalbTG glutamine-donor 5-mer] |  |  |  | 2.11 ± 0.13 pmol/s | 8.82 log2
5 | FRQRQ (Cbz-FRQRQ) [KalbTG glutamine-donor 5-mer] |  |  |  | 3.07 ± 0.17 pmol/s | 8.93 log2
6 | QRQRQ (Cbz-QRQRQ) [KalbTG glutamine-donor 5-mer] |  |  |  | 2.98 ± 0.01 pmol/s | 8.77 log2
7 | QYRQR (Cbz-QYRQR) [KalbTG glutamine-donor 5-mer] |  |  |  | 1.92 ± 0.07 pmol/s | 8.70 log2
8 | RQRQR (Cbz-RQRQR) [KalbTG glutamine-donor 5-mer] |  |  |  | 2.06 ± 0.08 pmol/s | 8.84 log2
9 | RYESK (Cbz-RYESK) [KalbTG lysine (K-tag) 5-mer] | 4.47 ± 0.16 pmol/s |  | 12.65 log2 |  | 
10 | RYGKS (Cbz-RYGKS) [KalbTG lysine 5-mer] | 2.66 ± 0.11 pmol/s |  | 12.38 log2 |  | 
11 | RYRQR (Cbz-RYRQR) [KalbTG glutamine-donor 5-mer] |  |  |  | 3.60 ± 0.12 pmol/s | 8.96 log2
12 | RYRSK (Cbz-RYRSK) [KalbTG lysine 5-mer] | 3.26 ± 0.10 pmol/s |  | 12.45 log2 |  | 
13 | RYSKY (Cbz-RYSKY) [KalbTG lysine (amine-donor) 5-mer] | 3.89 ± 0.04 pmol/s |  | 12.75 log2 |  | 
14 | RYSQR (Cbz-RYSQR) [KalbTG glutamine-donor 5-mer] |  |  |  | 3.22 ± 0.10 pmol/s | 8.93 log2
15 | YKGRG (Cbz-YKGRG) [KalbTG lysine 5-mer] | 3.01 ± 0.09 pmol/s |  | 12.25 log2 |  | 
16 | YKYRQ (Cbz-YKYRQ) [KalbTG glutamine-donor 5-mer, lysine-containing] |  |  |  | 4.00 ± 0.18 pmol/s | 8.70 log2
